From paper PMC5844530, “Fosmetpantotenate (RE-024), a phosphopantothenate replacement therapy for pantothenate kinase-associated neurodegeneration: Mechanism of action and efficacy in nonclinical models” (PLoS ONE, 2018)
Where “and” joins values, the source holds several entries; their conditions need not be identical. Equal entries are not always repeated.

Columns and labels:
[1] = Metabolic stability in human liver microsomes; format: in vitro ADME; details: pooled liver microsomes
Experimental: (§1) Metabolic stability in blood and liver microsomes: Fosmetpantotenate or its individual diastereomers (5 μM, n = 2, 37°C) were incubated in mouse, rat, cynomolgus monkey, and human whole blood. Samples (50 μL) were taken at 0, 5, 15, 30, and 60 min. Incubations of fosmetpantotenate or its individual diastereomers (1 μM, n = 2, 37°C) in pooled liver microsomes (0.25 mg protein/mL in 0.1 M phosphate buffer pH 7.4) were initiated with the addition of nicotinamide adenine dinucleotide phosphate (NADPH; 1 mM). Aliquots (100 μL) were obtained at 0, 5, 10, 20, and 40 min and added to 150 μL of 0.1% formic acid in acetonitrile-containing carbamazepine (0.5 μM) as an analytical internal standard, centrifuged, and the supernatants analyzed by LC-MS/MS.
(§2) Bioanalysis for determinations of analyte stability: Samples were analyzed using a benchtop tandem quadrupole detector (TQD) mass spectrometer (Waters Ltd, Centennial Park, Hertfordshire). […] Suitable retention and peak shape with separation of the 2 diastereomers were obtained. The chromatography column was a Phenomenex-Kinetex XB C18 (2.10 x 50 mm; 2.6 μm), with a 0.7 mL/min flow rate and a 2 μL injection volume. […]
(§3) The percent of compound remaining was determined from the MRM area response in each sample relative to that in the T = 0 samples (normalized for internal standard). […]

[2] = Metabolic stability in monkey whole blood; format: in vitro ADME, cynomolgus monkey; details: for Percentage Remaining: monkey whole blood, replicates 1 and 2, listed as Fosmetpantotenate Total
Experimental: as §1, with “Samples (50 μL) were taken at 0, 5, 15, 30, and 60 min.” left out
(§4) Bioanalysis for determinations of analyte stability: Samples were analyzed using a benchtop tandem quadrupole detector (TQD) mass spectrometer (Waters Ltd, Centennial Park, Hertfordshire). […] Suitable retention and peak shape with separation of the 2 diastereomers were obtained. The chromatography column was a Phenomenex-Kinetex XB C18 (2.10 x 50 mm; 2.6 μm), with a 0.7 mL/min flow rate and a 2 μL injection volume. […] The gradient was initiated with 20% B and increased linearly, reaching 40% B at 0.6 min, followed by 50% B at 0.8 min and by 95% B at 0.9 min. Conditions were kept isocratic through 1.2 min, returned to starting conditions (20% B) at 1.25 min, and maintained at 20% B through 1.5 min before the next injection. Since fosmetpantotenate is a mixture of diastereomers which are resolved chromatographically, the fosmetpantotenate MRM area corresponds to the sum of the MRM areas of the individual diastereomers.
(§5) The percent of compound remaining was determined from the MRM area response in each sample relative to that in the T = 0 samples (normalized for internal standard). Natural log plots of the percent compound remaining over time were used to determine the t½ of compound disappearance using the relationship t½ = -0.693/λ, where λ is the slope of the natural logarithm of the percent compound remaining vs time curve.

[3] = Microdialysis (brain striatal dialysate) in C57Bl6 mice; details: for Fosmetpantotenate Total Concentration in Mouse Striatal Dialysate (Corrected for Dilution): individual mice, non-fasted male C57/Bl6; for Fosmetpantotenate Total Concentration in Mouse Striatal Dialysate (Corrected for Dilution), Mean: mean of 8 mice
Experimental: Mice were anesthetized using isoflurane (2%, 800 mL/min O2).
For oral dosing experiments, MetaQuant microdialysis probes (regenerated cellulose membrane, BrainLink, the Netherlands) were inserted into the striatum (3 mm exposed surface). Coordinates for the tips of the probes for mice were anterior-posterior (AP) = +0.8 mm from bregma, lateral (L) = -1.7 mm from midline, and ventral (V) = -4.0 mm from dura, the toothbar set at 0 mm.
Microdialysis animal dosing and sample collection: Adult non-fasted male C57Bl6 mice (20–29 g; Harlan Laboratories, Livermore, CA), and Macaca fascicularis (4–9 kg, 3–6 yr old) were used for the experiments. For oral dosing, fosmetpantotenate was formulated as a solution in 20% hydroxypropyl-beta-cyclodextrin in 50 mM citrate buffer in water pH 5.0 and administered using a dose volume of 10 mL/kg. Mice (N = 6 serially sampled) received fosmetpantotenate as a single oral dose at 700 mg/kg and monkeys received a single oral dose at either 100 mg/kg (N = 4 serially sampled) or 300 mg/kg (N = 2 serially sampled).
Microdialysis: On the morning of the microdialysis experiment, a MetaQuant probe was inserted into the guide shaft targeting the head of the caudate nucleus and perfused at a rate of 0.15 μL/min aCSF containing 0.2% (w/v) BSA, with a carrier flow of 0.8 μL/min of ultrapure water.
A single 30 min pre-dose basal dialysate sample was collected from mice over -0.5 to 0 h, and three 30 min basal samples from monkeys over -1.5 to 0 h. Fosmetpantotenate was administered at t = 0, and 30 min dialysate samples were collected for an additional 4 h for mice and 3 h for monkeys.
Sample preparation for mouse dialysate samples: Concentrations of fosmetpantotenate, PA, and PPA in mouse dialysate were determined by Nextcea, Inc, Woburn, MA, using LC-MS/MS. Standard curves and QC samples containing fosmetpantotenate (D1 and D2) and the surrogate analytes for PA and PPA (^15N/^13C3-PA and ^15N/^13C3-PPA) were prepared fresh in 0.1% formic acid in water. Frozen study mouse dialysate samples were thawed in ice/water bath. Standards, QC samples, and thawed study dialysate samples (20 μL) were mixed with 20 μL 0.1% formic acid in water containing internal standard (50 ng/mL of ^15N/^13C3-fosmetpantotenate) and analyzed by LC-MS/MS.
LC-MS/MS analysis for mouse dialysate samples: Concentrations of fosmetpantotenate, PA, and PPA in dialysate from mice were determined by using LC-MS/MS conditions described for blood PK analysis by Nextcea, except dialysate samples were analyzed using an ACIEX API 5000 and flow rate was increased to 0.6 mL/min.
Quantitation of in vivo samples: Peak areas were integrated using Analyst software (AB Sciex, Concord, Ontario, Canada). Calibration curves for all blood samples from mouse and rat PK studies and mouse dialysate samples were prepared by plotting the analyte to internal standard (^15N/^13C3-fosmetpantotenate) peak area ratio vs concentration.

[4] = Metabolic stability in mouse whole blood; format: in vitro ADME; details: for Percentage Remaining: mouse whole blood, replicates 1 and 2, listed as Fosmetpantotenate Total
Experimental: as §1, §4, §5

[5] = Metabolic stability in rat liver microsomes; format: in vitro ADME; details: pooled liver microsomes
Experimental: as §1, §2, §3

[6] = Metabolic stability in monkey liver microsomes; format: in vitro ADME; details: pooled liver microsomes
Experimental: as §1, §2, §3

[7] = Metabolic stability in human whole blood; format: in vitro ADME; details: for Percentage Remaining: human whole blood, replicates 1 and 2, listed as Fosmetpantotenate Total
Experimental: as §1, §4, §5

[8] = pH 7.4, read-out: intrinsic clearance
[9] = single oral 700 mg/kg fosmetpantotenate, collection time 0 hr, BQL=8.08 nM
[10] = single oral 700 mg/kg fosmetpantotenate, collection time 0.5 hr, BQL=8.08 nM
[11] = single oral 700 mg/kg fosmetpantotenate, collection time 1 hr, BQL=8.08 nM
[12] = single oral 700 mg/kg fosmetpantotenate, collection time 1.5 hr, BQL=8.08 nM
[13] = single oral 700 mg/kg fosmetpantotenate, collection time 2 hr, BQL=8.08 nM
[14] = single oral 700 mg/kg fosmetpantotenate, collection time 2.5 hr, BQL=8.08 nM
[15] = single oral 700 mg/kg fosmetpantotenate, collection time 3 hr, BQL=8.08 nM
[16] = single oral 700 mg/kg fosmetpantotenate, collection time 3.5 hr, BQL=8.08 nM
[17] = single oral 700 mg/kg fosmetpantotenate, collection time 4 hr, BQL=8.08 nM
[18] = male, C57Bl6, mouse, striatal dialysate (brain microdialysate), other: direct infusion into the striatum via cannula, 125 µg per animal

## COC(=O)CCNC(=O)[C@H](O)C(C)(C)COP(=O)(N[C@@H](C)C(=O)OC)Oc1ccccc1 (mixture of isomers) [Fosmetpantotenate]
[1]; pH 7.4, 1 μM, NADPH
  half-life at 1 μM: 21 min
[1]; [8]
  microsomal CLint at 1 μM: 134 µL/min/mg
[2]; monkey blood, 5 μM, 37°C, 60 min
  half-life at 5 μM: 41 min
[2]; 5 min
  Percentage Remaining: 79% and 108%
[2]; 15 min
  Percentage Remaining: 66% and 98%
[2]; 30 min
  Percentage Remaining: 45% and 79%
[2]; 60 min
  Percentage Remaining: 22% and 35%
[2]; 90 min
  Percentage Remaining: 15% and 35%
[2]; 120 min
  Percentage Remaining: 10% and 17%
[3]; [9]
  Fosmetpantotenate Total Concentration in Mouse Striatal Dialysate (Corrected for Dilution): BQL
  Fosmetpantotenate Total Concentration in Mouse Striatal Dialysate (Corrected for Dilution), Mean: BQL
[3]; [10]
  Fosmetpantotenate Total Concentration in Mouse Striatal Dialysate (Corrected for Dilution): BQL
  Fosmetpantotenate Total Concentration in Mouse Striatal Dialysate (Corrected for Dilution), Mean: BQL
[3]; [11]
  Fosmetpantotenate Total Concentration in Mouse Striatal Dialysate (Corrected for Dilution): BQL
  Fosmetpantotenate Total Concentration in Mouse Striatal Dialysate (Corrected for Dilution), Mean: BQL
[3]; [12]
  Fosmetpantotenate Total Concentration in Mouse Striatal Dialysate (Corrected for Dilution): BQL
  Fosmetpantotenate Total Concentration in Mouse Striatal Dialysate (Corrected for Dilution), Mean: BQL
[3]; [13]
  Fosmetpantotenate Total Concentration in Mouse Striatal Dialysate (Corrected for Dilution): BQL
  Fosmetpantotenate Total Concentration in Mouse Striatal Dialysate (Corrected for Dilution), Mean: BQL
[3]; [14]
  Fosmetpantotenate Total Concentration in Mouse Striatal Dialysate (Corrected for Dilution): BQL
  Fosmetpantotenate Total Concentration in Mouse Striatal Dialysate (Corrected for Dilution), Mean: BQL
[3]; [15]
  Fosmetpantotenate Total Concentration in Mouse Striatal Dialysate (Corrected for Dilution): BQL
  Fosmetpantotenate Total Concentration in Mouse Striatal Dialysate (Corrected for Dilution), Mean: BQL
[3]; [16]
  Fosmetpantotenate Total Concentration in Mouse Striatal Dialysate (Corrected for Dilution): BQL
  Fosmetpantotenate Total Concentration in Mouse Striatal Dialysate (Corrected for Dilution), Mean: BQL
[3]; [17]
  Fosmetpantotenate Total Concentration in Mouse Striatal Dialysate (Corrected for Dilution): BQL
  Fosmetpantotenate Total Concentration in Mouse Striatal Dialysate (Corrected for Dilution), Mean: BQL
[3]; single oral dose (so in the source) 125 µg fosmetpantotenate per animal, collection time 0 hr
  Fosmetpantotenate Total Concentration in Mouse Striatal Dialysate (Corrected for Dilution): 0.1306 µM and 0.109 µM and 0.0833 µM and 0.3107 µM and 0.3579 µM and 0.2168 µM and 0.4624 µM
[3]; single oral dose (so in the source) 125 µg fosmetpantotenate per animal, collection time 0.5 hr
  Fosmetpantotenate Total Concentration in Mouse Striatal Dialysate (Corrected for Dilution): 27.5961 µM and 228.5933 µM and 5852.2469 µM and 2389.398 µM and 1463.0617 µM and 6013.9111 µM and 2121.0353 µM
[3]; single oral dose (so in the source) 125 µg fosmetpantotenate per animal, collection time 1 hr
  Fosmetpantotenate Total Concentration in Mouse Striatal Dialysate (Corrected for Dilution): 3.7441 µM and 35.9218 µM and 1147.8164 µM and 370.2112 µM and 269.3327 µM and 936.0362 µM and 475.293 µM
[3]; single oral dose (so in the source) 125 µg fosmetpantotenate per animal, collection time 1.5 hr
  Fosmetpantotenate Total Concentration in Mouse Striatal Dialysate (Corrected for Dilution): 0.2457 µM and 3.8638 µM and 77.1139 µM and 16.3443 µM and 13.2241 µM and 54.6749 µM and 52.7026 µM
[3]; single oral dose (so in the source) 125 µg fosmetpantotenate per animal, collection time 2 hr
  Fosmetpantotenate Total Concentration in Mouse Striatal Dialysate (Corrected for Dilution): 0.2142 µM and 1.3919 µM and 11.6398 µM and 2.8307 µM and 6.9839 µM and 18.3812 µM and 13.5798 µM
[3]; single oral dose (so in the source) 125 µg fosmetpantotenate per animal, collection time 2.5 hr
  Fosmetpantotenate Total Concentration in Mouse Striatal Dialysate (Corrected for Dilution): 0.2094 µM and 0.4624 µM and 4.0416 µM and 0.9538 µM and 6.8061 µM and 14.469 µM and 7.8892 µM
[3]; single oral dose (so in the source) 125 µg fosmetpantotenate per animal, collection time 3 hr
  Fosmetpantotenate Total Concentration in Mouse Striatal Dialysate (Corrected for Dilution): 0.1664 µM and 0.2839 µM and 1.9869 µM and 1.0929 µM and 4.1402 µM and 11.268 µM and 3.6164 µM
[3]; single oral dose (so in the source) 125 µg fosmetpantotenate per animal, collection time 3.5 hr
  Fosmetpantotenate Total Concentration in Mouse Striatal Dialysate (Corrected for Dilution): 0.1305 µM and 0.2331 µM and 1.7056 µM and 0.6693 µM and 3.2575 µM and 11.9147 µM and 1.9173 µM
[3]; single oral dose (so in the source) 125 µg fosmetpantotenate per animal, collection time 4 hr
  Fosmetpantotenate Total Concentration in Mouse Striatal Dialysate (Corrected for Dilution): 0.1387 µM and 0.2171 µM and 1.4129 µM and 0.5497 µM and 2.2649 µM and 9.8939 µM and 1.5099 µM
[3]; [18]
  concentration at 0 h: 0.239 µM
  concentration at 0.5 h: 2590 µM
  concentration at 1 h: 463 µM
  concentration at 1.5 h: 31.2 µM
  concentration at 2 h: 7.86 µM
  concentration at 2.5 h: 4.98 µM
  concentration at 3 h: 3.22 µM
  concentration at 3.5 h: 2.83 µM
  concentration at 4 h: 2.28 µM
[3]; striatal dialysate, fosmetpantotenate 700 mg/kg PO, analyte = label, not baseline-adjusted
  Cmax: <LLOQ
[4]; mouse blood, 5 μM, 37°C, 60 min
  half-life at 5 μM: < 5 min
[4]; 5 min
  Percentage Remaining: 1%
[4]; 15 min
  Percentage Remaining: 1%
[5]; pH 7.4, 1 μM, NADPH
  half-life at 1 μM: 8 min
[5]; [8]
  microsomal CLint at 1 μM: 335 µL/min/mg
[6]; pH 7.4, 1 μM, NADPH
  half-life at 1 μM: 11 min
[6]; [8]
  microsomal CLint at 1 μM: 263 µL/min/mg
[7]; human blood, 5 μM, 37°C, 60 min
  half-life at 5 μM: 67 min
[7]; 5 min
  Percentage Remaining: 103% and 90%
[7]; 15 min
  Percentage Remaining: 114% and 99%
[7]; 30 min
  Percentage Remaining: 77% and 71%
[7]; 60 min
  Percentage Remaining: 56% and 55%
